Data on 24 molecules can be found in US8829185B2 (Bayer HealthCare LLC, priority 2005, dated 2014).

The target of the experiment is T1, FGFR1-GST (Homo sapiens, UniProt P11362).
T1 construct: GST; made in house
Kind of experiment: FGFR-1 TR-FRET biochemical assay. As for the experimental part: FGFR-1 TR-FRET Biochemical Assay
The FGFR-1 Assay was performed on half well 96-well opaque plates (Costar 3915) in a LANCE format. LANCE is a homogenous time resolved fluormetry based application available through Perkin Elmer. For this assay, 50 uL reactions were set up using: 0.6 uM ATP (Sigma), 25 nM poly GT-biotin (CIS BIO International), 2 nM Eu-labelled phospho-Tyr Ab (PY20 PerkinElmer), 10 nM Streptavidin-APC (Perkin Elmer), 5 nM FGFR1-GST (generated by DRT, Bayer Healthcare), 1% DMSO, 50 mM HEPES pH 7.5, 10 mM MgCl2, 0.1 mM EDTA, 0.015% Brij, 0.1 mg/ml BSA, 0.1% B-mercaptoethanol. All reactions were initiated with the addition of enzyme and were left to incubate for one hour at room temperature. Time-resolved fluorescence was then read on a Perkin Elmer VictorV Multilabel counter. The reading protocol uses an excitation wavelength at 340 nm and emission reads at both 615 and 665 nm. Signal was calculated as a ratio: (Fluorescence at 665 nm/Fluorescence at […])*10000 for each well. The background control used for this assay is the signal produced with all assay components excluding ATP. For IC50 generation, compounds were added prior to the enzyme initiation. A 50-fold stock plate was made with compounds serially diluted 1:5 in a 50% DMSO/50% dH2O solution. A 1 μL addition of the stock to the assay wells gave final compound concentrations ranging from 10 μM −0.128 nM in 1% DMSO. The data were expressed as percent inhibition: % inhibition=100−((Signal with inhibitor-background)/(Signal without inhibitor−background))*100.
For orientation: Time-resolved FRET reads energy transfer from a long-lived donor to a nearby acceptor.

The structures appear in SMILES notation.

T1 sequence (P11362 22-822): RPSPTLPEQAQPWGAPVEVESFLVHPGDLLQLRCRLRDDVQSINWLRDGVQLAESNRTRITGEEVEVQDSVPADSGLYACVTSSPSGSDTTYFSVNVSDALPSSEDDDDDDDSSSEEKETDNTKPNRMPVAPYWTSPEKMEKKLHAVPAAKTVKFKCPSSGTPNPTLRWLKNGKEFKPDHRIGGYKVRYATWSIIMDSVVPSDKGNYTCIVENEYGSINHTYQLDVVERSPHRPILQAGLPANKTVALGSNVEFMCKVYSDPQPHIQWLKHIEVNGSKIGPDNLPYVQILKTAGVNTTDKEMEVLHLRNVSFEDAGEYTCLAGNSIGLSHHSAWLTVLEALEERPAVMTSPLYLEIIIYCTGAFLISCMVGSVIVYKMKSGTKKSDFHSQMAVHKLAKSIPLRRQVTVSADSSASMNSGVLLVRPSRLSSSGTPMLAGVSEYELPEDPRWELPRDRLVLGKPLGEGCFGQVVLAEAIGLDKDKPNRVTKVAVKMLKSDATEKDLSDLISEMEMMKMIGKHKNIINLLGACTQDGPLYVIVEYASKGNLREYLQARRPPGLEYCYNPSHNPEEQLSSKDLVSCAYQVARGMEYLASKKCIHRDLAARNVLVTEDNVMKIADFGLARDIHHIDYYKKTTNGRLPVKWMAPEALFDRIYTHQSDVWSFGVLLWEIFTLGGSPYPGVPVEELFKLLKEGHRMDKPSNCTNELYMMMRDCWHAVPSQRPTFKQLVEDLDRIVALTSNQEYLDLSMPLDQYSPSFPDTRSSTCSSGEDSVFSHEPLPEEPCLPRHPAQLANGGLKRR

Regarding `COCc1c(-c2ccc(NC(=O)Nc3cc(C(F)(F)F)ccc3F)c(F)c2)c2c(N)ncnn2c1CN1CCS(=O)(=O)CC1` [Example 43, N-{4-[4-amino-7-[(1,1-dioxidothiomorpholin-4-yl)methyl]-6-(methoxymethyl)pyrrolo[2,1-f][1,2,4]triazin-5-yl]-2-fluorophenyl}-N′-[2-fluoro-5-(trifluoromethyl)phenyl]urea], the IC50 (as a rule, the concentration that inhibits the measured activity by half) (bounds given in nM) lay in the range of 10 to 100 nM.

Under “bounds given in nM”, `Nc1ncnn2c(CN3CCOCC3)c(Cl)c(-c3ccc(NC(=O)Nc4cccc(C(F)(F)F)c4)c(Cl)c3)c12` [Example 160, N-{4-[4-amino-6-chloro-7-(morpholin-4-ylmethyl)pyrrolo[2,1-f][1,2,4]triazin-5-yl]-2-chlorophenyl}-N′-[3-(trifluoromethyl)phenyl]urea] showed an IC50 of 10 to 100 nM.

As to `N#Cc1c(C(=O)NCC(F)(F)F)c(-c2ccc(NC(=O)Nc3cc(C(F)(F)F)ccc3F)cc2)c2c(N)ncnn12` [Example 5, 4-amino-7-cyano-5-4-[([2-fluoro-5-(trifluoromethyl)phenyl]aminocarbonyl)amino]phenyl-N-(2,2,2-trifluoroethyl)-pyrrolo[2,1-f][1,2,4]triazine-6-carboxamide], the IC50 (bounds given in nM) was 10 to 100 nM.

Where the note is “bounds given in nM”, `Cc1c(-c2ccc(NC(=O)Nc3cc(C(F)(F)F)ccc3F)cc2)c2c(N)ncnn2c1CN1CCCOCC1` [Example 117, N-{4-[4-amino-6-methyl-7-(1,4-oxazepan-4-ylmethyl)pyrrolo[2,1-f][1,2,4]triazin-5-yl]phenyl}-N′-[2-fluoro-5-(trifluoromethyl)phenyl]urea] had an IC50 of less than 10 nM.

As to `N#CCc1c(-c2ccc(NC(=O)Nc3cc(C(F)(F)F)ccc3Cl)c(F)c2)c2c(N)ncnn2c1CN1CCS(=O)(=O)CC1` [Example 83, N-(4-{4-amino-6-(cyanomethyl)-7-[(1,1-dioxidothiomorpholin-4-yl)methyl]pyrrolo[2,1-f][1,2,4]triazin-5-yl}-2-fluorophenyl)-N′-[2-chloro-5-(trifluoromethyl)phenyl]urea], the IC50 (bounds given in nM) was less than 10 nM.

Where the note is “bounds given in nM”, `Cc1c(-c2cc(F)c(NC(=O)Nc3cc(C(F)(F)F)ccc3F)cc2F)c2c(N)ncnn2c1CN1CCOCC1` [Example 123, N-{4-[4-amino-6-methyl-7-(morpholin-4-ylmethyl)pyrrolo[2,1-f][1,2,4]triazin-5-yl]-2,5-difluorophenyl}-N′-[2-fluoro-5-(trifluoromethyl)-phenyl]urea] had an IC50 of 10 to 100 nM.

Take `COCc1c(-c2ccc(NC(=O)Nc3cc(C(F)(F)F)ccc3F)cc2)c2c(N)ncnn2c1CN1CCNC(=O)C1` [Example 19, N-(4-{4-amino-6-(methoxymethyl)-7-[(3-oxopiperazin-1-yl)methyl]pyrrolo[2,1-f][1,2,4]triazin-5-yl}phenyl)-N′-[2-fluoro-5-(trifluoromethyl)phenyl]urea]: where the note is “bounds given in nM”, the IC50 is less than 10 nM.

`Nc1ncnn2c(CN3CCOCC3)c(C(O)C3CC3)c(-c3ccc(NC(=O)Nc4cc(C(F)(F)F)ccc4F)cc3)c12` (centres unmarked) [Example 106, N-4-[4-amino-6-[cyclopropyl(hydroxy)methyl]-7-(morpholin-4-ylmethyl)pyrrolo[2,1-f][1,2,4]triazin-5-yl]phenyl-N′-[2-fluoro-5-(trifluoromethyl)phenyl]urea]: where the note is “bounds given in nM”, the IC50 is 10 to 100 nM.

For the setting “bounds given in nM”, `COCc1c(-c2ccc(NC(=O)Nc3cc(C(C)(C)C)ccn3)c(F)c2)c2c(N)ncnn2c1CN1CCOCC1` [Example 135, N-{4-[4-amino-6-(methoxymethyl)-7-(morpholin-4-ylmethyl)-pyrrolo[2,1-f][1,2,4]triazin-5-yl]-2-fluorophenyl}-N′-(4-tert-butylpyridin-2-yl)urea] returned an IC50 of less than 10 nM.

Take `Cc1cc(-c2c(C)c(CN3CCCOCC3)n3ncnc(N)c23)ccc1NC(=O)Nc1cc(C(F)(F)F)ccc1F` [Example 126, 1-{4-[4-amino-6-methyl-7-(1,4-oxazepan-4-ylmethyl)pyrrolo[2,1-f][1,2,4]triazin-5-yl]-2-methylphenyl}-3-[2-fluoro-5-(trifluoromethyl)-phenyl]urea]: the IC50 (bounds given in nM) was less than 10 nM.

As for `Nc1ncnn2c(CN3CCOCC3)c(C(F)F)c(-c3ccc(NC(=O)Nc4cc(C(F)(F)F)ccn4)c(F)c3)c12` [Example 116, N-{4-[4-amino-6-(difluoromethyl)-7-(morpholin-4-ylmethyl)-pyrrolo[2,1-f][1,2,4]triazin-5-yl]-2-fluorophenyl}-N′-[4-(trifluoromethyl)pyridin-2-yl]urea], the IC50 (bounds given in nM) was less than 10 nM.

In the case of `COCCNCc1c(COC)c(-c2ccc(NC(=O)Nc3cc(C(F)(F)F)ccc3F)cc2)c2c(N)ncnn12` [Example 15, N-{4-[4-amino-7-{[(2-methoxyethyl)amino]methyl}-6-(methoxymethyl)pyrrolo[2,1-f][1,2,4]triazin-5-yl]phenyl}-N′-[2-fluoro-5-(trifluoromethyl)phenyl]urea], the IC50 (bounds given in nM) is 10 to 100 nM.

With `CC(=O)c1c(-c2ccc(NC(=O)Nc3cc(C(F)(F)F)ccc3F)cc2)c2c(N)ncnn2c1CN1CCOCC1` [Example 105, N-4-[6-acetyl-4-amino-7-(morpholin-4-ylmethyl)pyrrolo[2,1-f][1,2,4]triazin-5-yl]phenyl-N′-[2-fluoro-5-(trifluoromethyl)phenyl]urea], where the note is “bounds given in nM”, the IC50 was less than 10 nM.

Under “bounds given in nM”, `Nc1ncnn2c(CN3CCOCC3)c(Cl)c(-c3ccc(NC(=O)Nc4cc(C(F)(F)F)ccc4F)cc3)c12` [Example 154, N-{4-[4-amino-6-chloro-7-(morpholin-4-ylmethyl)pyrrolo[2,1-f][1,2,4]triazin-5-yl]phenyl}-N′-[2-fluoro-5-(trifluoromethyl)phenyl]urea] showed an IC50 of less than 10 nM.

Consider `Cc1ccc(F)c(NC(=O)Nc2ccc(-c3c(Cl)c(CN4CCOCC4)n4ncnc(N)c34)cc2F)c1` [Example 161, N-{4-[4-amino-6-chloro-7-(morpholin-4-ylmethyl)pyrrolo[2,1-f][1,2,4]triazin-5-yl]-2-fluorophenyl}-N′-(2-fluoro-5-methylphenyl)urea], for which the IC50 (bounds given in nM) is less than 10 nM.

For `CC(C)(O)c1c(-c2ccc(NC(=O)Nc3cc(C(F)(F)F)ccn3)cc2)c2c(N)ncnn2c1CN1CCOCC1` [Example 86], the IC50 by setting is: (bounds given in nM) more than 100 nM; (upper bound in μM) less than 1000 nM.

The molecule `CCc1c(-c2ccc(NC(=O)Nc3cc(C(F)(F)F)ccn3)cc2)c2c(N)ncnn2c1CN1CCOCC1` [Example 148, N-{4-[4-amino-6-ethyl-7-(morpholin-4-ylmethyl)pyrrolo[2,1-f][1,2,4]triazin-5-yl]phenyl}-N′-[4-(trifluoromethyl)pyridin-2-yl]urea] displayed an IC50 (bounds given in nM) of 10 to 100 nM.

For the setting “bounds given in nM”, `COCc1c(-c2ccc(NC(=O)Nc3cc(C(F)(F)F)ccn3)cc2)c2c(N)ncnn2c1CN1CCN(C(C)=O)CC1` [Example 37, N-4-[7-[(4-acetylpiperazin-1-yl)methyl]-4-amino-6-(methoxy-methyl)pyrrolo[2,1-f][1,2,4]triazin-5-yl]phenyl-N′-[4-(trifluoromethyl)pyridin-2-yl]urea] showed an IC50 of 10 to 100 nM.

`COCc1c(-c2ccc(NC(=O)Nc3cc(C(F)(F)F)ccc3F)cc2)c2c(N)ncnn2c1CN1CCN(C(C)=O)CC1` [Example 21, N-{4-[7-[(4-acetylpiperazin-1-yl)methyl]-4-amino-6-(methoxymethyl)pyrrolo[2,1-f][1,2,4]triazin-5-yl]phenyl}-N′-[2-fluoro-5-(trifluoromethyl)phenyl]urea] registered an IC50 (bounds given in nM) of 10 to 100 nM.

Where the note is “bounds given in nM”, `CNCc1c(-c2ccc(NC(=O)Nc3cc(C(F)(F)F)ccc3F)cc2)c2c(N)ncnn2c1CN1CCOCC1` [Example 109, N-4-[4-amino-6-[(methylamino)methyl]-7-(morpholin-4-ylmethyl)pyrrolo[2,1-f][1,2,4]triazin-5-yl]phenyl-N′-[2-fluoro-5-(trifluoromethyl)phenyl]urea] registered an IC50 of 10 to 100 nM.

In turn, `CC(=O)c1c(-c2ccc(NC(=O)Nc3cccc(C(F)(F)F)c3)c(F)c2)c2c(N)ncnn2c1CN1CCOCC1` [Example 58, N-4-[6-acetyl-4-amino-7-(morpholin-4-ylmethyl)pyrrolo[2,1-f][1,2,4]triazin-5-yl]-2-fluorophenyl-N′-[3-(trifluoromethyl)phenyl]urea] had an IC50 (bounds given in nM) of less than 10 nM.

As to `N#CCc1c(-c2ccc(NC(=O)Nc3cc(C(F)(F)F)ccc3F)cc2)c2c(N)ncnn2c1CN1CCOCC1` [Example 68, N-{4-[4-amino-6-(cyanomethyl)-7-(morpholin-4-ylmethyl)-pyrrolo[2,1-f][1,2,4]triazin-5-yl]phenyl}-N′-[2-fluoro-5-(trifluoromethyl)-phenyl]urea], the IC50 (bounds given in nM) was less than 10 nM.

Under “bounds given in nM”, `N#CCc1c(-c2ccc(NC(=O)Nc3cc(C(F)(F)F)ccn3)cc2)c2c(N)ncnn2c1CN1CCNC(=O)C1` [Example 66, N-(4-{4-amino-6-(cyanomethyl)-7-[(3-oxopiperazin-1-yl)methyl]-pyrrolo[2,1-f][1,2,4]triazin-5-yl}phenyl)-N′-[4-(trifluoromethyl)pyridin-2-yl]urea] returned an IC50 of less than 10 nM.

With `COCc1c(-c2ccc(NC(=O)Nc3cc(C(F)(F)F)ccn3)cc2)c2c(N)ncnn2c1CN1CCC(F)(F)CC1` [Example 40, N-{4-[4-amino-7-[(4,4-difluoropiperidin-1-yl)methyl]-6-(methoxymethyl)pyrrolo[2,1-f][1,2,4]triazin-5-yl]phenyl}-N′-[4-(trifluoromethyl)pyridin-2-yl]urea], the IC50 (bounds given in nM) is more than 100 nM and the IC50 (upper bound in μM) is less than 1000 nM.
